Like-named read-outs stand apart in the source and are kept apart here.
What was measured:
CREB [1] = assay: Western blot for CREB phosphorylation level in neurons; format: cell-based; settings: for CREB phosphorylation: 10 µM, FIG. 2, against positive control amx; for phosphorylation of CREB: FIG. 8, compared with pterosin B
Procedure: (§1) Western blot analysis was performed by using the following method. Cells were lysed in RIPA buffer (20 mM Tris-Cl pH 7.4, 1 mM EDTA, 150 mM NaCl, 1% Triton X-100, 1 mM EGTA, 1 µM Na3VO4, 2.5 mM sodium pyrophosphate, 1 µM phenylmethylsulfonyl fluoride, 1 ug/ml leupeptin). The protein concentration was calculated by using BCA Protein Assay Reagent (BioRad, Hercules, CA, USA). Protein samples were separated by SDS-PAGE and transferred to polyvinylidene difluoride (PVDF) membranes (Millipore, Bedford, MA, USA). Membranes were incubated overnight at 4 °C with primary antibodies followed by HRP-conjugated goat anti-rabbit IgG (1:5,000; Pierce; Carlsbad, CA, USA). The used primary antibodies were actin (sigma; 1:1000), p-CREB (Cell signaling; 1:1000), tubulin (Cell signaling; 1:1000), p-PKA (Cell signaling; 1:1000), p -trk (Cell signaling; 1:1000) and BDNF (Abcam; 1:1000). All membranes were visualized by using a UVP Autochemi Darkroom Imaging System (Utra-Violet Products Ltd. UK) and Immobilon Crescendo Western HRP Substrate or Luminata Forte Western HRP Substrate (Millipore, USA).

NIH3T3 cells = assay: MTT assay, cytotoxicity in normal cells; format: cell-based; settings: for cytotoxicity: normal cells (NIH3T3), result in words
Procedure: (§2) NIH3T3 cells, as a mouse fibroblast cell line, and B16F10 cells, as a mouse melanoma cell line, were dispensed into a 96 well plate at 2×10^3 cells/well, and cultured in DMEM supplemented with 10% fetal bovine serum (FBS) at 5% CO2 and 37°C. Compounds (pterosin A, pterosin B, pterosin C, pterosin D, pterosin P, pterosin Z, pteroside A, pteroside B and pteroside Z) were treated at different concentrations and then cultured for 48 hours. Thereafter, MTT solution (5 mg/ml) was added to each well at a concentration of […] and incubated at 37°C for 4 hours. […] After incubation for 10 minutes, optical density was measured at 550 nm by using a Microplate Reader (Molecular Devices, Spectra Max, USA). An optical density is an index representing the number of surviving cells and is calculated by the formula below, and reproducibility was confirmed through three experiments. Cell proliferation rate (%) = OD550 (sample)/OD550; (control) × 100 [formula]
(§3) As described in the experimental method, mouse embryo fibroblast cell-line (NIH3T3) as a normal cell and Mouse melanoma cell-line (B16F10) as a cancer cell were cultured in a 96-well plate, and each compound was added to the cell medium at each concentration and cultured for 48 hours, MTT was then administered, and the optical density was measured at 550 nm by using a microplate reader. The optical density is an index representing the number of surviving cells and calculated by the following formula, and reproducibility was confirmed through three experiments. Cell proliferation rate (%) = OD550 (sample)/OD550; (control) × 100 [formula]
(§4) Then, the LD50 (Lethal Dose 50) value was calculated based on the change in cell proliferation rate.

CREB [2] = assay: Western blot for CREB phosphorylation level in astrocytes; format: cell-based; settings: FIG. 2
Procedure: as §1

B16F10 cells = assay: MTT assay, cytotoxicity in cancer cells; format: cell-based; settings: for cytotoxicity: cancer cells (B16F10), result in words
Procedure: as §2, §3, §4

in vitro = settings: for Papp at 4 h: PAMPA, pH 7.4, Pe Average
Procedure: Progesterone was used as a positive control and ranitidine was used as a negative control: • (1) A donor buffer at pH 7.4 was dispensed to a deep well plate and mixed with a test substance. • (2) The donor buffer was dispensed into a U.V plate by 150ul per well, and the optical density was measured: blank value. • (3) The mixture was dispensed in the deep well plate into the U.V plate by 150ul per well, and then the optical density was measured: blank value. • (4) 200ul of the mixture in step 1) was dispensed into the donor plate of the Stirwell PAMPA sandwich. • (5) The membrane of the acceptor plate of the Stirwell PAMPA sandwich was coated with 5 ul of BBB-1-lipid. • (6) A brain sink buffer was dispensed into each well on the acceptor plate by 200 ul. • (7) The acceptor plate and donor plate were combined and incubated at 25°C for 4 hours. • (8) After 4 hours of incubation, the acceptor plate and donor plate were separated, and 150 µl each was transferred to a UV plate, and the optical density was measured.

hippocampal slice = assay: Electrophysiology in hippocampal slices (fEPSP, LTP); design: species or system mouse; settings: theta-burst stimulation, FIG. 10
Procedure: • 1. The brain of a 4-month-old mouse was placed on an ice-cold dissection buffer, and a 300 µm-thick sagittal hippocampal slice was prepared by using a vibratome (dissection buffer: contents in mM: […], 25 NaHCO3, 5 KCl, 1.25 NaH2PO4, 0.5 CaCl2, 3.5 MgSO4, 10 D-glucose, 1.25 L-ascorbic acid and 2 Na-pyruvate bubbled with 95% O2/5% CO2). • 2. Slices were recovered at 32°C for 1 hour in normal ACSF (ACSF: mM: 125 NaCl, 2.5 KCl, 1.25 NaH2PO4, 25 NaHCO3, 10 glucose, 2.5 CaCl2 and 1.3 MgCl2 oxygen in 95% O2/5% CO2). • 3. During recording, the slices were moved to a chamber submerged in ACSF at 28°C, and ACSF saturated with 95% O2/5% CO2 was continuously perfused (2ml/min). A Micropipette for stimulation and recording was fabricated by using boron acid glass capillaries (Harvard Instruments) and a micropipette electrode puller. • 4. For input/output, paired-pulse ratio, and long-term potentiation (LTP) experiments, an ACSF-filled pipette (resistance: […]) was used to test the hippocampus. A field excitatory post-synaptic potential (fEPSP) was measured in the CA1 region. The fEPSP signal was amplified by using Multiclamp 700B (Molecular Devices) and digitized by using Digidata 1440A (Molecular Devices). […] The pair-pulse ratio was measured after giving the pair stimulation at intervals of 25, 50, 75, 100, 200, and 300 ms . • 6. […]

nerve cells (Neuron) = assay: Neuron proliferation, differentiation and regeneration promoting ability (microscopy); format: cell-based; settings: against control group, FIG. 11
Procedure: The abilities of pterosin compounds to promote nerve cell proliferation, differentiation and regeneration were evaluated.

[3] = Normal cell NIH3T3, cultured 48 hours, MTT, OD 550 nm
[4] = Cancer cell B16F10, cultured 48 hours, MTT, OD 550 nm
[5] = pH 7.4, 25°C, 4 hours, controls 50 µM, Pterosin D 12.5 µM

SMILES | CREB phosphorylation (CREB [1]) | LD50 (NIH3T3 cells; [3]) | CREB phosphorylation (CREB [2]) | cytotoxicity (B16F10 cells) | cytotoxicity (NIH3T3 cells) | LD50 (B16F10 cells; [4]) | also measured
Cc1cc2c(c(C)c1CCO)C(=O)[C@](C)(CO)C2 [Compound 6, (2S)-pterosin A] | significantly increased | >5,000 µM | no effect | weak cytotoxicity only in cancer cells |  |  | phosphorylation of CREB (CREB [1]): statistically significantly increased
CC(=O)[C@H]1CC[C@H]2[C@@H]3CCC4=CC(=O)CC[C@]4(C)[C@H]3CC[C@]12C [Progesterone, reference compound] |  |  |  |  |  |  | Papp at 4 h (in vitro): 28.8 ×10⁻⁶ cm/s
Cc1cc2c(c(C)c1CCO[C@@H]1O[C@H](CO)[C@@H](O)[C@H](O)[C@H]1O)C(=O)[C@](C)(CO)C2 [Compound 11, (2S)-pteroside A] |  |  |  |  |  |  | LD50 (NIH3T3 cells): >5,000 µM; LD50 (B16F10 cells): >5,000 µM
Cc1cc2c(c(C)c1CCO)C(=O)[C@H](C)C2 [Compound 2, (2R)-pterosin B] | did not increase CREB phosphorylation at all |  | no effect | little cytotoxicity | little cytotoxicity | >5,000 µM | 
Cc1cc2c(c(C)c1CCO)C(=O)[C@@H](C)[C@H]2O [Compound 8, (2S,3R)-pterosin C] |  | >5,000 µM |  |  |  | >5,000 µM | 
Cc1cc2c(c(C)c1CCO)C(=O)[C@@H](C)[C@@H]2O [pterosin C] | significantly increased |  | no effect |  |  |  | phosphorylation of CREB (CREB [1]): statistically significantly increased; hippocampus mossy fiber-CA1 LTP (hippocampal slice): particularly strong
Cc1c(CCO)c(CO)cc2c1C(=O)[C@@H](C)C2 [Compound 4, (2S)-pterosin P] | did not increase CREB phosphorylation at all | >5,000 µM | no effect | little cytotoxicity | little cytotoxicity | >5,000 µM | 
Cc1cc2c(c(C)c1CCO)C(=O)C(C)(C)[C@@H]2O [Compound 5, (3R)-pterosin D] | significantly increased | >5,000 µM | no effect | little cytotoxicity | little cytotoxicity | >5,000 µM | phosphorylation of CREB (CREB [1]): statistically significantly increased; hippocampus mossy fiber-CA1 LTP (hippocampal slice): particularly strong; Papp at 4 h (in vitro; [5]): 20.9 ×10⁻⁶ cm/s; Pe 1st (in vitro; [5]): 19.74 10^-6cm/sec; Pe 2nd (in vitro; [5]): 20.20 10^-6cm/sec; Pe 3rd (in vitro; [5]): 22.73 10^-6cm/sec; BCS code, CNS +/- (spreadability to CNS) (in vitro; pH 7.4, controls 50 µM, Pterosin D 12.5 µM): CNS+ (>10); length of nerve cells (nerve cells (Neuron)): significantly longer
Cc1cc2c(c(C)c1CCO[C@@H]1O[C@H](CO)[C@@H](O)[C@H](O)[C@H]1O)C(=O)C(C)(C)C2 [Compound 10, pteroside Z] |  |  |  |  |  |  | LD50 (NIH3T3 cells): >5,000 µM; LD50 (B16F10 cells): >5,000 µM
Cc1cc2c(c(C)c1CCO)C(=O)[C@H](C)[C@H]2O [Compound 7, (2R,3R)-pterosin C] |  | >5,000 µM |  |  |  | >5,000 µM | 
Cc1cc2c(c(C)c1CCO)C(=O)C(C)(C)C2 [Compound 3, pterosin Z] | did not increase CREB phosphorylation at all |  | no effect | weak cytotoxicity | weak cytotoxicity |  | 
Cc1cc2c(c(C)c1CCO[C@@H]1O[C@H](CO)[C@@H](O)[C@H](O)[C@H]1O)C(=O)[C@H](C)C2 [Compound 9, (2R)-pteroside B] |  |  |  |  |  |  | LD50 (NIH3T3 cells): >5,000 µM; LD50 (B16F10 cells): >5,000 µM
